The target in the experiment is Acetylcholinesterase (Homo sapiens, UniProt P22303). Description: Inhibition of human acetyl cholinesterase by Ellmann's method. (In general: DTNB colorimetry detects thiols as they appear.)
Sequence of Acetylcholinesterase (P22303 whole entry): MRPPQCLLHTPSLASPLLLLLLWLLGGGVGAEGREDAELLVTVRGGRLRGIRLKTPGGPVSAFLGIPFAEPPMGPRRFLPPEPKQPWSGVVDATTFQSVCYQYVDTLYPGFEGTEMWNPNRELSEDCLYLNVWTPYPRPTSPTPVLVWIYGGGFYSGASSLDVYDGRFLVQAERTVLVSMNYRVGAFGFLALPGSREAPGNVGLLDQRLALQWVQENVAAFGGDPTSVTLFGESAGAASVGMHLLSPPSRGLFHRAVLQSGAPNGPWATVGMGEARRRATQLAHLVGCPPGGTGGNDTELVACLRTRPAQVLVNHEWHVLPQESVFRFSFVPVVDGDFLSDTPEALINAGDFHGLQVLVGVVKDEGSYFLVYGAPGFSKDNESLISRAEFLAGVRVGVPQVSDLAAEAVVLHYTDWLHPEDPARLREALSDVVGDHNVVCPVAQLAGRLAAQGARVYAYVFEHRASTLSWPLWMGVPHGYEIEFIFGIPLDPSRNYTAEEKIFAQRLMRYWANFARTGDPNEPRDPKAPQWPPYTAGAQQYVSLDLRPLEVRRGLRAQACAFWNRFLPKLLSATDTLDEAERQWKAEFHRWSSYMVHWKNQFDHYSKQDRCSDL
For `COc1ccc(C2CN(C)C3(C(=O)Nc4ccc([N+](=O)[O-])cc43)C23Cc2cc(OC)c(OC)cc2C3=O)cc1OC` (centres undefined), the IC50 (usually the concentration needed to halve the response being measured) is 6.1 µM.

Consider `COc1ccc(C2C(c3ccccc3)NC3(C(=O)Nc4ccccc43)C23Cc2cc(OC)c(OC)cc2C3=O)cc1OC` (centres undefined), for which inhibition was half-maximal at 5.2 µM (IC50).

Consider `COc1cc2c(cc1OC)C(=O)C1(C2)C(c2ccc(F)cc2)C(c2ccccc2)NC12C(=O)Nc1ccc(Cl)cc12` (centres undefined), for which the IC50 came out at 9.86 µM.

Regarding `COc1ccc(C2C(c3ccccc3)NC3(C(=O)Nc4ccc(Cl)cc43)C23Cc2cc(OC)c(OC)cc2C3=O)cc1OC` (centres undefined), the IC50 was 8.26 µM. Molecule `COc1cc2c(cc1OC)C(=O)C1(C2)C(c2ccccc2Cl)C(c2ccccc2)NC12C(=O)Nc1ccc(Cl)cc12` (centres undefined) came in with an IC50 of 12.2 µM. `COc1cc2c(cc1OC)C(=O)C1(C2)C(c2ccc(F)cc2)C(c2ccccc2)NC12C(=O)Nc1ccc([N+](=O)[O-])cc12` (centres undefined) yielded an IC50 of 14.3 µM.

`COc1ccc(C2C(c3ccccc3)NC3(C(=O)Nc4ccc([N+](=O)[O-])cc43)C23Cc2cc(OC)c(OC)cc2C3=O)cc1OC` (centres undefined) displayed an IC50 of 15.4 µM.

Molecule `COc1cc2c(cc1OC)C(=O)C1(C2)C(c2ccccc2)C(c2ccccc2)NC12C(=O)Nc1ccc([N+](=O)[O-])cc12` (centres undefined) yielded an IC50 of 3.7 µM. Consider `COc1cc2c(cc1OC)C(=O)C1(C2)C(c2ccccc2Cl)C(c2ccccc2)NC12C(=O)Nc1ccc([N+](=O)[O-])cc12` (centres undefined), for which the IC50 is 4.2 µM.

On to `COc1cc2c(cc1OC)C(=O)C1(C2)C(c2ccc(F)cc2)CN(C)C12C(=O)Nc1ccccc12` (centres undefined), for which inhibition was half-maximal at 2.12 µM (IC50).

In the case of `COc1ccc(C2CN(C)C3(C(=O)Nc4ccccc43)C23Cc2cc(OC)c(OC)cc2C3=O)cc1OC` (centres undefined), 4.2 µM corresponded to half-maximal inhibition (IC50).

On to `COc1cc2c(cc1OC)C(=O)C1(C2)C(c2ccccc2)CN(C)C12C(=O)Nc1ccccc12` (centres undefined), for which half-maximal inhibition (IC50) was put at 3.12 µM. The molecule `COc1cc2c(cc1OC)C(=O)C1(C2)C(c2ccccc2Cl)CN(C)C12C(=O)Nc1ccccc12` (centres undefined) registered an IC50 of 4.3 µM. Molecule `COc1cc2c(cc1OC)C(=O)C1(C2)C(c2ccc(F)cc2)CN(C)C12C(=O)Nc1ccc(Cl)cc12` (centres undefined) displayed an IC50 of 3.7 µM. The molecule `COc1ccc(C2CN(C)C3(C(=O)Nc4ccc(Cl)cc43)C23Cc2cc(OC)c(OC)cc2C3=O)cc1OC` (centres undefined) had an IC50 of 4.2 µM. In turn, `COc1cc2c(cc1OC)C(=O)C1(C2)C(c2ccccc2)CN(C)C12C(=O)Nc1ccc(Cl)cc12` (centres undefined) came in with an IC50 of 11.2 µM. `COc1cc2c(cc1OC)C(=O)C1(C2)C(c2ccccc2Cl)CN(C)C12C(=O)Nc1ccc(Cl)cc12` (centres undefined) had an IC50 of 6.6 µM. The figure for `COc1cc2c(cc1OC)C(=O)C1(C2)C(c2ccc(F)cc2)CN(C)C12C(=O)Nc1ccc([N+](=O)[O-])cc12` (centres undefined) is 8.6 µM; for `COc1cc2c(cc1OC)C(=O)C1(C2)C(c2ccccc2)CN(C)C12C(=O)Nc1ccc([N+](=O)[O-])cc12` (centres undefined) it is 13.2 µM; for `COc1cc2c(cc1OC)C(=O)C1(C2)C(c2ccccc2Cl)CN(C)C12C(=O)Nc1ccc([N+](=O)[O-])cc12` (centres undefined) it is 7.6 µM.

Consider `COc1cc2c(cc1OC)C(=O)C1(C2)C(c2ccc(F)cc2)C(c2ccccc2)NC12C(=O)Nc1ccccc12` (centres undefined), for which the midpoint of inhibition, the IC50, lay at 6.86 µM. `COc1cc2c(cc1OC)C(=O)C1(C2)C(c2ccccc2)C(c2ccccc2)NC12C(=O)Nc1ccccc12` (centres undefined) came in with an IC50 of 5.12 µM. `COc1cc2c(cc1OC)C(=O)C1(C2)C(c2ccccc2Cl)C(c2ccccc2)NC12C(=O)Nc1ccccc12` (centres undefined) came in with an IC50 of 7.3 µM.

As to `COc1cc2c(cc1OC)C(=O)C1(C2)C(c2ccccc2)C(c2ccccc2)NC12C(=O)Nc1ccc(Cl)cc12` (centres undefined), half-maximal inhibition (IC50) required 7.26 µM.

These data come from ChEMBL document CHEMBL1287675, “Substituted spiro [2.3'] oxindolespiro [3.2″]-5,6-dimethoxy-indane-1″-one-pyrrolidine analogue as inhibitors of acetylcholinesterase” (Bioorg Med Chem Lett, 2010).
